Results: ChEMBL document CHEMBL1143698, “Conformation selectivity in the binding of diazepam and analogues to alpha1-acid glycoprotein” (Bioorg Med Chem, 2007)

How the values were obtained:
[1] = target: Alpha-1-acid glycoprotein 1 (Homo sapiens, UniProt P02763); assay: Binding affinity to human alpha1-acid glycoprotein at 30 uM
Homo sapiens [2] = species: Homo sapiens; assay: Binding affinity to human alpha1-acid glycoprotein F1-S variant at 30 uM
Homo sapiens [3] = species: Homo sapiens; assay: Binding affinity to human alpha1-acid glycoprotein F1-S variant at 60 uM
Homo sapiens [4] = species: Homo sapiens; assay: Binding affinity to human alpha1-acid glycoprotein A variant at 30 uM
Homo sapiens [5] = species: Homo sapiens; assay: Binding affinity to human alpha1-acid glycoprotein A variant at 60 uM
Albumin = Albumin (Homo sapiens, UniProt P02768); assay: Binding affinity to 30 uM human serum albumin at 30 uM
Chain of Albumin (P02768 whole entry): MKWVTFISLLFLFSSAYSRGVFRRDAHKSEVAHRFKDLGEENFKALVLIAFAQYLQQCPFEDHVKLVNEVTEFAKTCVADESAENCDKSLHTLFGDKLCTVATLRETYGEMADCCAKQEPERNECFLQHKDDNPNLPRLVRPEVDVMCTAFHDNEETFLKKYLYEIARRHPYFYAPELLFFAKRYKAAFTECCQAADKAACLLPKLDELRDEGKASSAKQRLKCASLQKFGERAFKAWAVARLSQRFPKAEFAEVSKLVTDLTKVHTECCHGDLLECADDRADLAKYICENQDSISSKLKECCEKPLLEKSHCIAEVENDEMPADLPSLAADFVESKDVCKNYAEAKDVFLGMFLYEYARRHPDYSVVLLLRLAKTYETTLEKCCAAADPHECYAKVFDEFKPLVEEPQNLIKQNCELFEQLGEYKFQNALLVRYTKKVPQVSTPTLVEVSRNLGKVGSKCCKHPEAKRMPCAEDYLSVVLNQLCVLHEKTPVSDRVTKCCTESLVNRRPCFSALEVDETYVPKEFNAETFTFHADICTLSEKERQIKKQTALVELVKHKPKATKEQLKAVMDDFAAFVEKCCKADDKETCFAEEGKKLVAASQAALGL

Chain of Alpha-1-acid glycoprotein 1 (P02763 whole entry): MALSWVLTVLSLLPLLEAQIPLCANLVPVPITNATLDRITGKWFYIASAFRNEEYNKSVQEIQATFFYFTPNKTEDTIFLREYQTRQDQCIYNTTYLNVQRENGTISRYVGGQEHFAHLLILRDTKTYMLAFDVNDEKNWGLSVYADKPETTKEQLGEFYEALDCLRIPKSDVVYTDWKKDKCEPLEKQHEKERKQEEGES

CN1C(=O)CN=C(c2ccccc2)c2cc(Cl)ccc21 [DIAZEPAM]
Activity [1]: 10 µM
Activity (Homo sapiens [2]): 9 µM
Activity (Homo sapiens [3]): 12 µM
Activity (Homo sapiens [4]): 12 µM
Activity (Homo sapiens [5]): 17 µM

CC1(C)N=C(c2ccccc2)c2cc(Cl)ccc2NC1=O
Activity [1]: 13 µM
Activity (Albumin): 13 µM
Activity (Homo sapiens [2]): 9 µM
Activity (Homo sapiens [4]): 12 µM

CN1C(=O)C(C)(C)N=C(c2ccccc2)c2cc(Cl)ccc21
Activity [1]: 14 µM
Activity (Albumin): 17 µM

O=C1CN=C(c2ccccc2)c2cc(Cl)ccc2N1 [NORDAZEPAM]
Activity [1]: 9 µM
Activity (Albumin): 17 µM
